Results as given in ChEMBL document CHEMBL1155741, “Ellagitannins and hexahydroxydiphenoyl esters as inhibitors of vertebrate squalene epoxidase” (J Nat Prod, 2001).

What follows are compounds tested against T1, Squalene monooxygenase (Rattus norvegicus, UniProt P52020) (assay: Inhibition of C-terminal hexahistidine-tagged rat recombinant squalene epoxidase without N-terminal putative membrane domain expressed in Escherichia coli).
T1 sequence (P52020 whole entry, the tested form may be a part): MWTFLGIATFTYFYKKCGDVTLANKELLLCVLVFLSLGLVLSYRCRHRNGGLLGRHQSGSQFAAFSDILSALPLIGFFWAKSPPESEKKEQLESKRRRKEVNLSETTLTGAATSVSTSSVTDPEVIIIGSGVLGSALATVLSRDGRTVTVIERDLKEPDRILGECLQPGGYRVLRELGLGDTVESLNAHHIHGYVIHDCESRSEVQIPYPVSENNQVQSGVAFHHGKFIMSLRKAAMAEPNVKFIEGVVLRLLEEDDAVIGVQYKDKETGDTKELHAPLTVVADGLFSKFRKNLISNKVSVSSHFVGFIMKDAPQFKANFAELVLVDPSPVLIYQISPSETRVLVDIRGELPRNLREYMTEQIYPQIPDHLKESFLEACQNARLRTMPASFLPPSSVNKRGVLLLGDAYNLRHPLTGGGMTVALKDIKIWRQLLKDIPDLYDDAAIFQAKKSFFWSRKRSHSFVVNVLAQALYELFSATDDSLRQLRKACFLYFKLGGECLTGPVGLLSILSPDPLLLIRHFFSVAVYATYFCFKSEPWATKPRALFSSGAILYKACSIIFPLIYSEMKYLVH

Row | IC50 | Structure (SMILES)
1 | 2 µM | O=C1OC[C@H]2OC(O)[C@@H]3OC(=O)c4cc(O)c(O)c(O)c4-c4c(cc(O)c(O)c4O)C(=O)O[C@H]3[C@@H]2OC(=O)c2cc(O)c(O)c(O)c2-c2c1cc(O)c(O)c2O (some centres undefined) [PEDUNCULAGIN]
2 | 4.2 µM | CCOC(=O)c1cc(O)c(O)c(O)c1 [ETHYLGALLATE]
3 | 2 µM | O=c1oc2c(O)c(O)cc3c(=O)oc4c(O)c(O)cc1c4c23 [ELLAGIC ACID]
4 | 1.5 µM | CCCCCCCCCCCCCCOC(=O)c1cc(O)c(O)c(O)c1-c1c(C(=O)OCCCCCCCCCCCCCC)cc(O)c(O)c1O
5 | 7.9 µM | CCCCOC(=O)c1cc(O)c(O)c(O)c1-c1c(C(=O)OCCCC)cc(O)c(O)c1O
6 | 4.1 µM | O=C1O[C@H]2[C@@H]3OC(=O)c4cc(O)c(O)c(O)c4-c4c(cc(O)c(O)c4O)C(=O)OC[C@H]2O[C@@H](OC(=O)c2cc(O)c(O)c(O)c2)[C@@H]3OC(=O)c2cc(O)c(O)c3c2[C@@H]2C1=CC(=O)[C@](O)(O3)C2(O)O [GERANIIN]
7 | 47 µM | CCCCCCCCCCCCCCCCCCOC(=O)c1cc(O)c(O)c(O)c1-c1c(C(=O)OCCCCCCCCCCCCCCCCCC)cc(O)c(O)c1O
8 | 7 µM | O=C(O[C@@H]1O[C@@H]2COC(=O)c3cc(O)c(O)c(O)c3-c3c(cc(O)c(O)c3O)C(=O)O[C@H]2[C@@H]2OC(=O)c3cc(O)c(O)c(O)c3-c3c(cc(O)c(O)c3O)C(=O)O[C@@H]12)c1cc(O)c(O)c(O)c1
9 | 12 µM | O=C(O[C@@H]1O[C@@H]2COC(=O)c3cc(O)c(O)c(O)c3-c3c(O)c(O)c(O)c(Oc4cc(C(=O)O[C@@H]5O[C@@H]6COC(=O)c7cc(O)c(O)c(O)c7-c7c(cc(O)c(O)c7O)C(=O)O[C@H]6[C@@H]6OC(=O)c7cc(O)c(O)c(O)c7-c7cc(O)c(O)c(O)c7C(=O)O[C@@H]56)cc(O)c4O)c3C(=O)O[C@H]2[C@@H]2OC(=O)c3cc(O)c(O)c(O)c3-c3c(cc(O)c(O)c3O)C(=O)O[C@@H]12)c1cc(O)c(O)c(O)c1
10 | 0.83 µM | CCCCCCCCOC(=O)c1cc(O)c(O)c(O)c1-c1c(C(=O)OCCCCCCCC)cc(O)c(O)c1O
11 | 100 µM | O=C(OC[C@H]1O[C@@H](OC(=O)c2cc(O)c(O)c(O)c2)[C@H](OC(=O)c2cc(O)c(O)c(O)c2)[C@@H](OC(=O)c2cc(O)c(O)c(O)c2)[C@@H]1OC(=O)c1cc(O)c(O)c(O)c1Oc1cc2c(c(O)c1O)-c1c(cc(O)c(O)c1O)C(=O)O[C@H]1[C@H](OC(=O)c3cc(O)c(O)c(O)c3)[C@@H](OC(=O)c3cc(O)c(O)c(O)c3)[C@H](OC(=O)c3cc(O)c(O)c(O)c3)O[C@@H]1COC2=O)c1cc(O)c(O)c(O)c1 [PHYLLYRAEOIDIN]
12 | 32 µM | O=C1O[C@H]2[C@H](O)[C@@H](CO)OC(O)[C@@H]2OC(=O)c2cc(O)c(O)c(O)c2-c2c1cc(O)c(O)c2O (some centres undefined)
13 | 1.3 µM | CCCCCCCCCCCCOC(=O)c1cc(O)c(O)c(O)c1-c1c(C(=O)OCCCCCCCCCCCC)cc(O)c(O)c1O
14 | 10 µM | O=C1O[C@H]2[C@H](O)[C@@H](OC(=O)c3cc(O)c(O)c4c3[C@@H]3C1=CC(=O)C(O)(O)C3(O)O4)[C@H](OC(=O)c1cc(O)c(O)c(O)c1)O[C@@H]2CO (some centres undefined) [FUROSIN]
15 | 1.6 µM | O=C(O[C@@H]1O[C@@H]2COC(=O)c3cc(O)c(O)c(O)c3-c3c(cc(O)c(O)c3O)C(=O)O[C@H]2[C@H](OC(=O)c2cc(O)c(O)c(O)c2)[C@H]1OC(=O)c1cc(O)c(O)c(O)c1)c1cc(O)c(O)c(O)c1 [EUGENIIN]
16 | 20 µM | O=C1OC[C@H]2O[C@@H](O)[C@H](O)[C@@H](O)[C@@H]2OC(=O)c2cc(O)c(O)c(O)c2-c2c(O)c(O)c3oc(=O)c4c(c(O)c(O)c5oc(=O)c2c3c54)-c2c1cc(O)c(O)c2O [PUNICALIN]
17 | 34 µM | O=C(O[C@@H]1COC(=O)c2cc(O)c(O)c(O)c2-c2c(cc(O)c(O)c2O)C(=O)O[C@H]1[C@@H]1OC(=O)c2cc(O)c(O)c(O)c2-c2c(O)c(O)c(O)c3c2C(=O)O[C@H]1[C@@H]3O)c1cc(O)c(O)c(O)c1 [CASUARININ]
18 | 30 µM | O=C1OC[C@H]2OC(=O)c3cc(O)c(O)c(O)c3-c3c(O)c(O)c(O)c4c3C(=O)O[C@H]([C@H]3OC(=O)c5c-4c(O)c(O)c(O)c5[C@H]3O)[C@@H]2OC(=O)c2cc(O)c(O)c(O)c2-c2c1cc(O)c(O)c2O [CASTALAGIN]
19 | 8 µM | O=C(O[C@@H]1O[C@@H]2COC(=O)c3cc(O)c(O)c(O)c3-c3c(cc(Oc4c(C(=O)O)cc(O)c(O)c4O)c(O)c3O)C(=O)O[C@H]([C@H]1O)[C@@H]2O)c1cc(O)c(O)c(O)c1 [MALLOTINIC ACID]
20 | 12 µM | O=C(O)C[C@H]1C(=O)O[C@H]2[C@H](OC(=O)c3cc(O)c(O)c(O)c3)[C@@H](OC(=O)c3cc(O)c(O)c4c3[C@H]1[C@H](O)C(=O)O4)[C@H](OC(=O)c1cc(O)c(O)c(O)c1)O[C@@H]2COC(=O)c1cc(O)c(O)c(O)c1 [CHEBULINIC ACID]
21 | 1.1 µM | CCCCCCCCCCOC(=O)c1cc(O)c(O)c(O)c1-c1c(C(=O)OCCCCCCCCCC)cc(O)c(O)c1O
22 | 2.5 µM | CCCCCCCCCCCCCCCCOC(=O)c1cc(O)c(O)c(O)c1-c1c(C(=O)OCCCCCCCCCCCCCCCC)cc(O)c(O)c1O
23 | 8 µM | O=C1O[C@H]2[C@@H]3OC(=O)c4cc(Oc5c(C(=O)O)cc(O)c(O)c5O)c(O)c(O)c4-c4c(cc(O)c(O)c4O)C(=O)OC[C@H]2O[C@@H](OC(=O)c2cc(O)c(O)c(O)c2)[C@@H]3OC(=O)c2cc(O)c(O)c3c2[C@@H]2C1=CC(=O)[C@](O)(O3)C2(O)O [MALLOTUSINIC ACID]
24 | 0.93 µM | CCCCCCOC(=O)c1cc(O)c(O)c(O)c1-c1c(C(=O)OCCCCCC)cc(O)c(O)c1O
25 | 0.59 µM | CCCCCCCCCCCCCCCCOC(=O)c1cc(O)c(O)c(O)c1 [HEXADECYL GALLATE]
26 | 16.4 µM | COC(=O)c1cc(O)c(O)c(O)c1-c1c(C(=O)OC)cc(O)c(O)c1O
27 | 3.2 µM | O=C(O)C[C@@H]1C(=O)O[C@H]2[C@@H]3OC(=O)c4cc(O)c(O)c(O)c4-c4c(cc(O)c(O)c4O)C(=O)OC[C@H]2O[C@@H](OC(=O)c2cc(O)c(O)c(O)c2)[C@@H]3OC(=O)c2cc(O)c(O)c3c2[C@H]1[C@H](O)C(=O)O3 [CHEBULAGIC ACID]
28 | 13.3 µM | CCOC(=O)c1cc(O)c(O)c(O)c1-c1c(C(=O)OCC)cc(O)c(O)c1O
29 | 4 µM | O=C(O[C@@H]1O[C@@H]2COC(=O)c3cc(O)c(O)c(O)c3-c3c(cc(O)c(O)c3O)C(=O)O[C@H]([C@H]1O)[C@@H]2O)c1cc(O)c(O)c(O)c1 [CORILAGIN]

Row | Structure (SMILES) | IC50
30 | O=C(O)c1cc(O)c(O)c(O)c1 [GALLIC ACID] | 73 µM
31 | CCCCCCCCOC(=O)c1cc(O)c(O)c(O)c1 [OCTYL_GALLATE] | 0.83 µM
32 | O=C(OC[C@H]1O[C@@H](OC(=O)c2cc(O)c(O)c(O)c2)[C@H](OC(=O)c2cc(O)c(O)c(O)c2)[C@@H](OC(=O)c2cc(O)c(O)c(O)c2)[C@@H]1OC(=O)c1cc(O)c(O)c(O)c1)c1cc(O)c(O)c(O)c1 [PENTAGALLOYL GLUCOSE] | 0.47 µM
33 | O=C1O[C@@H]2[C@@H](OC(=O)c3cc(O)c(O)c(O)c3-c3c1cc(O)c(O)c3O)[C@H](O)O[C@@H]1COC(=O)c3cc(O)c(O)c(O)c3-c3c(O)c(O)c4oc(=O)c5c(c(O)c(O)c6oc(=O)c3c4c65)-c3c(cc(O)c(O)c3O)C(=O)O[C@@H]21 [PUNICALAGIN] | 40 µM

Each compound was assayed against Squalene epoxidase (Sus scrofa, UniProt A7L861) (assay: Inhibition of pig squalene epoxidase).
Squalene epoxidase, sequence (A7L861 whole entry): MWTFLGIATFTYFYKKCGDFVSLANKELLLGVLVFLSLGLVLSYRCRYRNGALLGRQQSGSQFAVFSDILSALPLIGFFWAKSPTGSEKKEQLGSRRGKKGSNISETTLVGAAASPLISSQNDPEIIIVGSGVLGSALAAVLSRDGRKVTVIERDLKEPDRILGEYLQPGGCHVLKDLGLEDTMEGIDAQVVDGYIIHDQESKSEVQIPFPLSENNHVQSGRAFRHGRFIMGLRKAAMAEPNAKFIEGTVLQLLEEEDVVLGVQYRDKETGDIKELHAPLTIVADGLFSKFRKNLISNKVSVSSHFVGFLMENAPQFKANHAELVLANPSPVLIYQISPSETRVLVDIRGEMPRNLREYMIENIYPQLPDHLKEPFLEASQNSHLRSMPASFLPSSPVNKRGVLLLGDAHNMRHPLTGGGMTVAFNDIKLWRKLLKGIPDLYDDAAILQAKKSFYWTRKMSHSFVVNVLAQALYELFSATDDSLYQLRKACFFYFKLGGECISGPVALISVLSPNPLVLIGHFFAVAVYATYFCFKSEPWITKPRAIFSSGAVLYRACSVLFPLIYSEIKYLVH

Row | IC50 | Structure (SMILES)
34 | 4 µM | CC(C)=CCC/C(C)=C/CC/C(C)=C/CC/C=C(\C)CC/C=C(\C)CCCO [TRISNORSQUALENE ALCOHOL]
35 | 2 µM | CC(C)=CCC/C(C)=C/CC/C(C)=C/CC/C=C(\C)CC/C=C(\C)CCCNC1CC1 [TRISNORSQUALENE CYCLOPROPYLAMINE]

Each compound was assayed against T1, Squalene monooxygenase (assay: Inhibition of rat squalene epoxidase).

Row | IC50 | Structure (SMILES)
36 | 5.4 µM | CC(C)=CCC/C(C)=C/CC/C(C)=C/CC/C=C(\C)CC/C=C(\C)CCC=C(F)F [TRISNORSQUALENE DIFLUOROMETHYLIDENE]
37 | 0.63 µM | O=C(OC[C@H]1O[C@@H](OC(=O)c2cc(O)c(O)c(O)c2)[C@H](OC(=O)c2cc(O)c(O)c(O)c2)[C@@H](O)[C@@H]1O)c1cc(O)c(O)c(O)c1
38 | 0.13 µM | O=C(O[C@@H]1Cc2c(O)cc(O)cc2O[C@@H]1c1cc(O)c(O)c(O)c1-c1c([C@H]2Oc3cc(O)cc(O)c3C[C@H]2OC(=O)c2cc(O)c(O)c(O)c2)cc(O)c(O)c1O)c1cc(O)c(O)c(O)c1 [THEASINENSIN A]
39 | 0.54 µM | O=C(O[C@@H]1[C@@H](c2c(O)cc(O)c3c2O[C@H](c2ccc(O)c(O)c2)[C@H](OC(=O)c2cc(O)c(O)c(O)c2)C3)c2c(O)cc(O)cc2O[C@@H]1c1ccc(O)c(O)c1)c1cc(O)c(O)c(O)c1
